The results in this text go back to EP1279727A1, “TRANSFORMATION AND MODIFICATION OF NATURAL DRUG BY INTESTINAL PROBIOTIC FERMENTATIVE CULTURE” (Wu, Bingxin, priority 2000, dated 2002).

In series [1] the test system is H22 hepatocarcinoma. Format: in vivo. To be noted: H22 mouse, single therapy (subgroup 2 preparation alone; subgroup 3 5-Fu 15 mg/kg alone), 7 days. The method, then:
1. […] The resultant model mouse is grouped randomly into eight groups.
Each mouse in first four groups is treated for observing effect of the present natural medicine preparation on the efficiency of anti-cancer chemical agent, fliorouracil (5-Fu, 15 mg/kg), mice in the rest four groups is for the effect of the present compositions on the efficiency of radiotherapy for cancer (^60Co irradiation on whole body, 4.5 Gray /day/animal).
The combination therapy to both animal groups (4 subgroups in each group) starts from the next day of grafting tumor cells and continues for 7 days.
The synergetic effect of the present composition on chemical therapy or radiotherapy for cancer is calculated by the inhibition rate according to the following Burgi's correction equation: Q= E (A+B)/EA+EB-EAxEB [formula] wherein, E (A+B) is the cancer inhibition rate of the combined therapy, EA and EB are the cancer inhibition rate of the present composition administration, or the chemical therapy (or radiotherapy) alone.
Result: (1) If Q calculated is lower than 0.85, it is considered as an antergenic effect between combined therapy; (2) if Q is between 0.85 and 1.15, it is considered as an addictive effect; and (3) if Q is above 1.15, then it is deemed as synergetic effect between combined therapy. The particular results are listed in table 3 and table 4, respectively.

Series [2] relates to H22 hepatocarcinoma. To be noted: H22 mouse, positive control CTX subcutaneously.
Experimental: (§1) Using species Kunming mouse subcutaneously grafted S180 sacoma or H22 hepatocarcinoma as cancer-harboring model animal, the inhibition activity on growth of cancer is observed with respect to extract of anti-cancer natural medicines which converted or unconverted by the above intestinal probiotics in either large dose or small dose.
(§2) For this purpose, 120 mice weighed from about 18-25g are grafted subcutaneously at right axilla with 1 x 10^7 cells/ml of S180 sacoma or H22 hepatocarcinoma (0.2ml/mouse) in order to obtain solid tumor model animal. The resultant model animal is grouped randomly into 12 groups. Each animal in treatment group is orally administrated with unfermented (in 1:1 dilution) or fermented (in 1:4 dilution) extract of natural medicines daily.
(§3) The administration of extract of natural medicine starts at the forth day from the date grafting cancer cells, i.e., the time when solid tumor can be touched by hand. After continuously administration over 10 days, the weight of animal and solid tumor are measured, respectively, and then inhibition rate of cancer can be calculated accordingly. The treatment experiments on the two types of cancer are carried out in triplicate.
The subject of series [3] is S180 sacoma. To be noted: S180 mouse, positive control CTX subcutaneously.
Experimental: as §1, §2, §3

Molecules are shown by their SMILES. Like-named read-outs stand apart in the source and are kept apart here.

`O=c1[nH]cc(F)c(=O)[nH]1` [5-Fu, fliorouracil]: in series [1], the inhibition rate is given as 56.7% and the “tumor weight (X±SD)” value was determined as 1.06±0.31.

As to `O=P1(N(CCCl)CCCl)NCCCO1` (stereo not shown) [positive control, cyclophosphamide], the “animal weight before ad.” value in series [2] was determined as 21.2. In series [2] (after 10 days), the “animal weight after ad.” value amounted to 27.9, the inhibition rate is reported as 62.4% and the “solid tumor weight (X±SD)” value came out at 0.72±0.36. Moreover, the “animal weight before ad.” value in series [3] came to 20.1. For the same compound, in series [3] (after 10 days), the “animal weight after ad.” value is on record as 21.2, the inhibition rate was found to be 61.0% and the “solid tumor weight (X±SD)” value is on record as 0.55±0.19.
